Legend:
[1] = test system: EO771 (Luc+OVA+) tumor organoids; assay: Toxicity on tumor organoids without T cells (WST-1 viability); type: cell-based, mouse; settings: no T cells
Method: Tumor cell viability assay: For 2D tumor cell culture, tumor cells were seeded into 96 well plates at 2,000 cells per well and cultured for 72 h. For tumor organoids, tumor organoids with diameter between 70 and 150 μm were seeded at 50 organoids per well into 96-well microplates with ultra-low attachment surface (Corning). Cells or tumor organoids were treated with indicated compound at the final concentration of 1 μM. After 3-day culture, tumor organoids were dissociated into single cells using TrypLE Express (Corning) at 37° C. with a shaking velocity of 500 rpm on a thermomixer (Eppendorf) for 15 min. The 96-well microplates were added with 10 μl/well of Premix WST-1 reagent (TaKaRa) and incubated for 1 h. The microplates were read at absorbance of 450 nm on the Epoch microreader (BioTek). The toxicity of the epigenetic drugs was quantified using the premix WST-1 reagent according to the manufacturer's protocol.

[2] = test system: EO771 tumors; assay: EO771 orthotopic breast tumor model in immunocompetent C57BL/6 mice; type: in vivo; settings: for expression of GZMB, IFNγ and TNFα in the tumor-infiltrated CD8+ T cells / tumor infiltration of T cells (total CD3+, CD4+ and CD8+): 20 mg kg-1; for expression of GZMB, IFNγ and TNFα in the tumor-infiltrated CD8+ T cells: FIG. 3E; for tumor infiltration of T cells (total CD3+, CD4+ and CD8+): flow cytometry; for tumor growth and weight: 20 mg kg-1 i.p., 3 times/week for 2 weeks; for tumor growth and weight / tumor cell proliferation (Ki67+): vs control group; for numbers of apoptotic tumor cells (cleaved Caspase 3+) / tumor cell proliferation (Ki67+): IHC of tumor tissue; for anti-tumor activity after depletion of CD4+ T cells: anti-CD4 10 mg kg-1 + drug 20 mg kg-1; for anti-tumor activity after depletion of CD8+ T cells: anti-CD8 10 mg kg-1 + drug 20 mg kg-1; for IFNγ and TNFα secretion by CD8+ T cells of drug-treated tumors: upon stimulation (PMA and ionomycin)
Method: T cell effector function analysis: We measured cytokine and cytolytic granule production (IFNγ, GZMB and TNFα) of CD8+ T cells from mouse tumor samples and tumor organoid-T cell co-culture. Briefly, CD8+ T cells were placed into the 24-well plate at 1×10^6 cells/well, stimulated with 1 μM ionomycin and 50 ng ml-1 phorbol 12-myristate 13-acetate (PMA) (Sigma-Aldrich) for 4 h, in the presence of 5 μg ml-1 Brefeldin A (BFA), with the purpose to amplify the expression of intracellular cytokines61. The cells were stained with APC/Cy7-conjugated anti-CD8a (Biolegend) for 15 min and then fixed by 4% PFA. After washing, cells were stained with PerCP/Cy7-conjugated anti-GZMB, APC-conjugated anti-IFNγ and PE-conjugated anti-TNFα (Biolegend) for 15 min. In flow cytometric analyses, T cells stained with isotype control antibodies were used as negative controls for gating the cytokine or granule-producing cells. For T cells from tumor organoid-T cell co-culture, tumor organoids were first digested into single cells with TrypLE Express at 37° C. before APC/Cy7-conjugated anti-CD8a staining. In the IFNγ and TNFα secretion assay (Biolegend), T cells were stimulated with ionomycin and PMA without the presence of BFA. The media were collected for ELISA assay.
Immunohistochemistry (IHC) and Immunofluorescence (IF) analysis of tumor organoids: Tumor organoids were gently centrifuged at 100 rcf from organoid culture medium and then embedded in 2% agar. Tumor organoids were fixed in 4% paraformaldehyde solution for overnight at room temperature. The samples were replaced with 70% ethanol and later embedded in paraffin blocks. Paraffin sections were cut at 5 μm thickness, attached on slides, heated at 60° C. for 1 h and then overnight at 37° C. The slides were stained with hematoxylin and eosin (H&E). IHC staining follows the protocol described62. Mouse-specific antibodies for CD8α (Cell Signaling Technology, clone D4W2Z, 1:400 dilution), cleaved caspase3 (Cell Signaling Technology, clone D175, 1:400 dilution) and Ki67 (Cell Signaling Technology, clone D3B5, 1:400 dilution) were used for IHC staining. The DAB peroxidase substrate kit (Vector laboratories Inc.) was used to visualize the antibodies. For IF analysis, the sample slides were blocked 3% BSA for 40 min after hydration. The slides were stained with primary antibodies including EpCAM (Abcam, 1:400 dilution), FITC-conjugated anti-α-SMA (Genetex, 1:400 dilution) and AF594-conjugated anti-CD31 (Biolegend) for 1 h. For EpCAM staining, the slide was further stained with secondary antibody Alexa Fluor 647-conjugated anti-rabbit IgG (Biolegend, 1:200) for 40 min. The fluorescence images were captured under a Leica DM4B microscope.
Animal studies: All animal experiments were performed in accordance with the National Institutes of Health's Animal Use Guidelines and protocols approved by the Animal Care and Use Committee of Indiana University School of Medicine. To examine the tumorigenic potential of tumor organoids, tumor organoids with different sizes (diameter of 30-70, 70-150, and 150-500 μm) were orthotopically injected into fat pad of the 4th mammary gland in female C57BL/6 mice. Each mouse was injected with a total of 2×10^5 tumor cells. 5 mice were used in each group. Tumors were measured in two dimensions using a manual caliper. Tumor volume was calculated using the following formula: V=0.5×length×width×width. Tumor volume was measured every 3 days. Tumors were harvested 22 days after injection. The tumor growth, volume and weight were analyzed. To evaluate the anti-tumor effect of drugs in immunocompetent C57BL/6 mice and immunodeficient nude (NU/J) mice, 2×10^5 EO771 cells were orthotopically injected into fat pad of the 4th mammary gland in female mice. […]

[3] = test system: OVA+ EO771 cells; assay: H-2Kb presentation on OVA+ EO771 cells (flow cytometry, confocal); type: cell-based, mouse; settings: for H-2Kb antigen presentation (confocal images): 1 μM, 48 h, FIG. 4E; for H-2Kb levels on EO771 cells (MFI): flow cytometry
Method: Flow Cytometry: Sample acquisition was done using LSR Fortessa X-20 or LSR Fortessa (BD Biosciences) and data were analyzed using FlowJo v10.6.0 software. Live/dead cells were assessed using SYTOX Blue (Invitrogen, Dilution 1:100). For cell staining involving cell permeabilization, the BD cytofix/cytoperm fixation permeabilization kit (BD Biosciences) was used. The PBS buffer containing 0.5% BSA and 10% FBS were used to dilute antibodies. The antibodies used in flow cytometrical analyses include: […] The compensation was performed using CompBeads for negative control (BD Biosciences), anti-mouse Ig,κ (BD Biosciences), anti-rat Ig,κ and anti-hamster Ig,κ (BD Biosciences). The beads were stained with the corresponding antibodies separately under the same conditions as the cells were stained in each experiment. SYTOX Blue reagent was used to stain dead cells. Half of the live cells were incubated at 60° C. for 2 min to enable membrane permeable and then mixed with the other half incubated at 37° C. The mixed cells were stained with SYTOX Blue for 15 mins and used for compensation. For all the data analysis, doublet exclusion was performed and only single cells were analyzed. Dead cell populations were also excluded from analysis if the experiment were not involved in cell killing. One million events per sample were collected for immune profiling analysis in the animal experiments. For all in vitro experiments, at least ten thousand events per sample were collected for flow cytometry analysis. Confocal Microscopy: OVA+ EO771 and NY-ESO-1+ MDA-MB-468 cells were seeded at 5×10^3 cell/well in the 8-well slide (Millicell EZ slide, […]) and treated with 1 μM drug (GSK-LSD1, CUDC-101 or BML-210) for 48 h. FITC-conjugated anti-mouse H-2Kb antibody (Biolegend, dilution 1:50) and FITC-conjugated anti-HLA-A2 (Biolegend, dilution 1:50) were used to stain OVA+ EO771 and NY-ESO-1+ MDA-MB-468 cells, respectively, for 2 h. For cell nucleus staining, cells were incubated with 0.5% Triton X-100/PBS for 10 min and stained with DAPI (Sigma-Aldrich, dilution 1:100) for 15 min. The slides were rinsed in PBS twice and mounted with ProLong Gold anti-fade mountant (Invitrogen, P36930). Fluorescence images were captured using Leica TCS SP8 (upright high speed multiphoton) confocal imaging system. 3-D images were analyzed by the Imaris x64 8.1.2 software.

Row | Compound | effect on the tumor organoids in the absence of T cells [1] | expression of GZMB, IFNγ and TNFα in the tumor-infiltrated CD8+ T cells [2] | tumor infiltration of T cells (total CD3+, CD4+ and CD8+) [2] | tumor growth and weight [2] | numbers of apoptotic tumor cells (cleaved Caspase 3+) [2] | tumor cell proliferation (Ki67+) [2] | anti-tumor activity after depletion of CD4+ T cells [2] | anti-tumor activity after depletion of CD8+ T cells [2] | anti-tumor activity relative to the other candidates ([2]; in vitro and in vivo assays) | IFNγ and TNFα secretion by CD8+ T cells of drug-treated tumors [2] | H-2Kb antigen presentation (confocal images) [3] | H-2Kb levels on EO771 cells (MFI) [3] | cytotoxicity of the CD8+ T cells in the tumors ([2]; immune analyses of treated tumors)
1 | Nc1ccccc1NC(=O)CCCCCCC(=O)Nc1ccccc1 [BML-210] | no notable effect | up-regulated | higher tumor infiltration | significantly suppressed | increased | markedly lower | did not have much effect | abolished the anti-tumor activity | most potent anti-tumor activity | secreted more IFNγ and TNFα | boosted up the antigen presentation | much higher levels | 
2 | C#Cc1cccc(Nc2ncnc3cc(OC)c(OCCCCCCC(=O)NO)cc23)c1 [CUDC-101] | no notable effect | up-regulated | higher tumor infiltration | significantly suppressed | increased | markedly lower | did not have much effect | abolished the anti-tumor activity |  | secreted more IFNγ and TNFα | boosted up the antigen presentation | increased | 
3 | c1ccc([C@@H]2C[C@H]2NC2CCNCC2)cc1 [GSK-LSD1] | no notable effect |  | higher tumor infiltration of T cells | markedly suppressed | increased | much lower |  |  |  |  | boosted up the antigen presentation | increased | enhanced cytotoxicity of the CD8+ T cells
